Legend:
Type in all cases: functional
[1] = tested on: Escherichia coli; experiment: Potency index, ratio of ciprofloxacin MIC to compound MIC for antibacterial activity against Escherichia coli
[2] = tested on: Pseudomonas aeruginosa; experiment: Antibacterial activity against Pseudomonas aeruginosa after 24 hrs by agar streak dilution method
[3] = tested on: Pseudomonas aeruginosa; experiment: Potency index, ratio of ciprofloxacin MIC to compound MIC for antibacterial activity against Pseudomonas aeruginosa
[4] = tested on: Escherichia coli; experiment: Antibacterial activity against Escherichia coli after 24 hrs by agar streak dilution method
[5] = tested on: Staphylococcus epidermidis; experiment: Antibacterial activity against Staphylococcus epidermidis ATCC 12228 by agar dilution method
[6] = tested on: Escherichia coli; experiment: Antibacterial activity against Escherichia coli ATCC 8739 by agar dilution method
[7] = tested on: Staphylococcus aureus; experiment: Antibacterial activity against Staphylococcus aureus ATCC 6538P by agar dilution method
[8] = tested on: Klebsiella pneumoniae; experiment: Antibacterial activity against Klebsiella pneumoniae ATCC 10031 by agar dilution method
[9] = tested on: Bacillus subtilis; experiment: Antibacterial activity against Bacillus subtilis PTCC 1023 by agar dilution method
[10] = tested on: Pseudomonas aeruginosa; experiment: Antibacterial activity against Pseudomonas aeruginosa ATCC 9027 by agar dilution method
[11] = tested on: Staphylococcus aureus; experiment: Potency index, ratio of ampicillin MIC to compound MIC for antibacterial activity against Staphylococcus aureus ATCC 25923
[12] = tested on: Bacillus cereus; experiment: Potency index, ratio of ampicillin MIC to compound MIC for antibacterial activity against Bacillus cereus 709 Roma
[13] = tested on: Mycolicibacterium smegmatis; experiment: Potency index, ratio of ampicillin MIC to compound MIC for antibacterial activity against Mycobacterium smegmatis ATCC 607
[14] = tested on: Saccharomyces cerevisiae; experiment: Potency index, ratio of ampicillin MIC to compound MIC for antifungal activity against Saccharomyces cerevisiae RSKK 251
[15] = tested on: Enterococcus faecalis; experiment: Potency index, ratio of ampicillin MIC to compound MIC for antibacterial activity against Enterococcus faecalis ATCC 29212
[16] = tested on: Escherichia coli; experiment: Potency index, ratio of ampicillin MIC to compound MIC for antibacterial activity against Escherichia coli ATCC 25922
[17] = tested on: Candida albicans; experiment: Potency index, ratio of ampicillin MIC to compound MIC for antifungal activity against Candida albicans ATCC 60193
[18] = tested on: Pseudomonas aeruginosa; experiment: Potency index, ratio of ampicillin MIC to compound MIC for antibacterial activity against Pseudomonas aeruginosa ATCC 43288
[19] = tested on: Yersinia pseudotuberculosis; experiment: Potency index, ratio of ampicillin MIC to compound MIC for antibacterial activity against Yersinia pseudotuberculosis ATCC 911
[20] = tested on: Escherichia coli; experiment: Antibacterial activity against Escherichia coli ATCC 35218 after 18 to 24 hrs by double microdilution method
[21] = tested on: Mycolicibacterium smegmatis; experiment: Antibacterial activity against Mycobacterium smegmatis ATCC 607 after 48 to 72 hrs by double microdilution method
[22] = tested on: Enterococcus faecalis; experiment: Antibacterial activity against Enterococcus faecalis ATCC 29212 after 18 to 24 hrs by double microdilution method
[23] = tested on: Yersinia pseudotuberculosis; experiment: Antibacterial activity against Yersinia pseudotuberculosis ATCC 911 after 18 to 24 hrs by double microdilution method
[24] = tested on: Pseudomonas aeruginosa; experiment: Antibacterial activity against Pseudomonas aeruginosa ATCC 10145 after 18 to 24 hrs by double microdilution method
[25] = tested on: Bacillus cereus; experiment: Antibacterial activity against Bacillus cereus 709 Roma after 18 to 24 hrs by double microdilution method
[26] = tested on: Staphylococcus aureus; experiment: Antibacterial activity against Staphylococcus aureus ATCC 25923 after 18 to 24 hrs by double microdilution method
[27] = tested on: Staphylococcus aureus; experiment: Antibacterial activity against methicillin-sensitive Staphylococcus aureus ATCC 6538 after 18 hrs by broth microdilution method; conditions: ATCC 6538, 18 h
[28] = tested on: Bacillus subtilis; experiment: Antibacterial activity against Bacillus subtilis ATCC 6638 after 18 hrs by broth microdilution method; conditions: ATCC 6638, 18 h
[29] = tested on: Staphylococcus epidermidis; experiment: Antibacterial activity against Staphylococcus epidermidis ATCC 12228 after 18 hrs by broth microdilution method; conditions: ATCC 12228, 18 h
[30] = tested on: Micrococcus luteus; experiment: Antibacterial activity against Micrococcus luteus ATCC 10240 after 18 hrs by broth microdilution method; conditions: ATCC 10240, 18 h
[31] = tested on: Staphylococcus aureus; experiment: Antibacterial activity against methicillin-sensitive Staphylococcus aureus ATCC 25923 after 18 hrs by broth microdilution method; conditions: ATCC 25923, 18 h
[32] = tested on: Bacillus cereus; experiment: Antibacterial activity against Bacillus cereus ATCC 10876 after 18 hrs by broth microdilution method; conditions: ATCC 10876, 18 h
[33] = tested on: Staphylococcus aureus; experiment: Antibacterial activity against methicillin-resistant Staphylococcus aureus MIKROBANK 14001 by broth microdilution method

CCOc1ccc2nc(C3C(=O)CSC3N3CCN(c4cc5c(cc4F)c(=O)c(C(=O)O)cn5C4CC4)CC3)sc2c1 (centres undefined)
3: Ratio [1] | Ratio [3]
2 µg/mL: MIC [2] | MIC [4]

O=C(O)c1cn(C2CC2)c2cc(N3CCN(c4nnc(-c5ccc([N+](=O)[O-])s5)s4)CC3)c(F)cc2c1=O
0.008 to 0.015 µg/mL: MIC [5] | MIC [7] | MIC [9]
2 to 64 µg/mL: MIC [6] | MIC [8] | MIC [10]

O=C(O)c1cn(C2CC2)c2cc(N3CCN(Cn4nc(CN5CCSCC5)oc4=S)CC3)c(F)cc2c1=O
>41: Ratio [11] | Ratio [12] | Ratio [13] | Ratio [14] | Ratio [15] | Ratio [16] | Ratio [17] | Ratio [18] | Ratio [19]

CCn1c(CN2CCN(c3ccccc3OC)CC2)nn(CN2CCN(c3cc4c(cc3F)c(=O)c(C(=O)O)cn4C3CC3)CC2)c1=S
< 0.24 µg/mL: MIC [20] | MIC [21] | MIC [22] | MIC [23] | MIC [24] | MIC [25] | MIC [26]

O=C(O)c1cn(C2CC2)c2cc(N3CCN(Cn4nc(-c5cccc(O)c5)n(Cc5ccc(Br)cc5Cl)c4=S)CC3)c(F)cc2c1=O
0.01 to 1.32 µM: MIC [27] | MIC [28] | MIC [29] | MIC [30] | MIC [31] | MIC [32] | MIC [33]

Cn1c([N+](=O)[O-])cnc1-c1nnc(N2CCN(c3cc4c(cc3F)c(=O)c(C(=O)O)cn4C3CC3)CC2)s1
0.008 to 0.015 µg/mL: MIC [5] | MIC [7] | MIC [9]
2 to 64 µg/mL: MIC [6] | MIC [8] | MIC [10]

From ChEMBL document CHEMBL4196012 (Eur J Med Chem, 2018)
